IC50 data for 29 compounds are collected here from patent US20140005163A1 (NOVARTIS AG, priority 2010, published 2014).

Structures are written as SMILES.

What is called IC50 is the concentration that inhibits the measured activity by half.

T1 sequence (P42345 1360-2549 limits assumed): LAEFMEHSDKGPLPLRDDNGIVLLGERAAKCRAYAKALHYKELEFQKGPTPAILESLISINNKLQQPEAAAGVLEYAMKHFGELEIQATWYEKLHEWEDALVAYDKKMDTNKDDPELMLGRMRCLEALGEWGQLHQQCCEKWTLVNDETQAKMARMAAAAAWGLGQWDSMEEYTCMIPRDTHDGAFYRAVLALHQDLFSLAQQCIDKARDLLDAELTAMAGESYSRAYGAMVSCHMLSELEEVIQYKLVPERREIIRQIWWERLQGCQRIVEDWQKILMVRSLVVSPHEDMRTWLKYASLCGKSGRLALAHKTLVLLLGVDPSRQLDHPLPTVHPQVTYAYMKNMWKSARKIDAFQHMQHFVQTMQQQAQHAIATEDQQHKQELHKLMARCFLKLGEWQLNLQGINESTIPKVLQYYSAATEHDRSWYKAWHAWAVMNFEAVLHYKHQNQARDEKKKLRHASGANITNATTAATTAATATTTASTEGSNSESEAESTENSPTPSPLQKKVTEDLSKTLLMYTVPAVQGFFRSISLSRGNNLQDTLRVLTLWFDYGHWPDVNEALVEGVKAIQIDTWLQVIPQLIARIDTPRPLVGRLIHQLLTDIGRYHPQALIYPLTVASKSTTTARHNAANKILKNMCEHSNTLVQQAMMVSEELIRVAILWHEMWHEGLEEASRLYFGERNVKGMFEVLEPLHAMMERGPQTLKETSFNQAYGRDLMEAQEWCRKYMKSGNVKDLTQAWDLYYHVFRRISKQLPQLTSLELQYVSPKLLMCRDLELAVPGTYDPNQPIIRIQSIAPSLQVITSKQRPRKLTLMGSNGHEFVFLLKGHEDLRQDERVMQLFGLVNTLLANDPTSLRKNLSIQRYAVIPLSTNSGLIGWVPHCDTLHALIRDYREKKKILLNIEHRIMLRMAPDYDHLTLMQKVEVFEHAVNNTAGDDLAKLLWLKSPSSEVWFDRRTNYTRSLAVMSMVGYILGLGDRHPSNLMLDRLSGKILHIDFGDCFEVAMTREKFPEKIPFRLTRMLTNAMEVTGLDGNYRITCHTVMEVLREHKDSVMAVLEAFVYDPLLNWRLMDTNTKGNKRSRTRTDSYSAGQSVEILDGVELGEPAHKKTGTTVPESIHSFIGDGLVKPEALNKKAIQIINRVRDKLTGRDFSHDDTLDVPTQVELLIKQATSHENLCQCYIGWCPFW

This experiment concerns the target T1, mTOR (Homo sapiens, UniProt P42345).
T1 construct: purchased Invitrogen Corporation (Carlsbad/CA, USA) PV4753
Nature of the experiment: Biochemical assay for m-TOR by TR-FRET. Particulars: 8 μM ATP, 400 nM GFP-4EBP1, 0.5 nM mTOR. Summed up:
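TR-FRET detection of pThr46 on GFP-4EBP1 (400 nM final) using Tb3+-labelled antibody (0.5 nM), added with EDTA to stop reactions. Reactions ran at rt with 0.5 nM mTOR and 8 μM ATP (final) in HEPES pH 7.5 buffer containing 10 mM MnCl2.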
As for `Cc1nn(CC(=O)N(C)C)c(C)c1-n1c(=O)n(C)c2cnc3ccc(-c4cnc(N)c(C(F)(F)F)c4)cc3c21` [Example 25.2, 2-{4-[8-(6-Amino-5-trifluoromethyl-pyridin-3-yl)-3-methyl-2-oxo-2,3-dihydro-imidazo[4,5-c]quinolin-1-yl]-3,5-dimethyl-pyrazol-1-yl}-N,N-dimethyl-acetamide], the IC50 was found to be 152 nM. To `Cc1nn(C)c(C)c1-n1c(=O)n(C)c2cnc3ccc(-c4cnc(N)c(C(F)(F)F)c4)cc3c21` [Example 25.3, 8-(6-Amino-5-trifluoromethyl-pyridin-3-yl)-3-methyl-1-(1,3,5-trimethyl-1H-pyrazol-4-yl)-1,3-dihydro-imidazo[4,5-c]quinolin-2-one] belongs 116 nM; to `Cc1nn(C(C)C)cc1-n1c(=O)n(C)c2cnc3ccc(-c4cnc(N)c(C(F)(F)F)c4)cc3c21` [Example 25.4, 8-(6-Amino-5-trifluoromethyl-pyridin-3-yl)-1-(1-isopropyl-3-methyl-1H-pyrazol-4-yl)-3-methyl-1,3-dihydro-imidazo[4,5-c]quinolin-2-one], 6 nM; to `Cc1noc(C)c1-n1c(=O)n(C)c2cnc3ccc(-c4cnc(N)c(C(F)(F)F)c4)cc3c21` [Example 25.5, 8-(6-Amino-5-trifluoromethyl-pyridin-3-yl)-1-(3,5-dimethyl-isoxazol-4-yl)-3-methyl-1,3-dihydro-imidazo[4,5-c]quinolin-2-one], 432 nM.

Take `COc1ncc(-c2ccc3ncc4c(c3c2)n(-c2cn(C)nc2C)c(=O)n4C)cc1N(C)C(C)=O` [Example 62, N-{5-[1-(1,3-Dimethyl-1H-pyrazol-4-yl)-3-methyl-2-oxo-2,3-dihydro-1H-imidazo[4,5-c]quinolin-8-yl]-2-methoxy-pyridin-3-yl}-N-methyl-acetamide]: the concentration for half-maximal inhibition (IC50) was found to be 642 nM.

Regarding `CNc1ncc(-c2ccc3ncc4c(c3c2)n(-c2c(C)nn(C)c2C)c(=O)n4C)cn1` [Example 80.2], the IC50 came out at 120 nM. Take `Cc1nn(C)cc1-n1c(=O)n(C)c2cnc3ccc(-c4cnc(N)nc4)cc3c21` [Example 81.1, 8-(2-Amino-pyrimidin-5-yl)-1-(1,3-dimethyl-1H-pyrazol-4-yl)-3-methyl-1,3-dihydro-imidazo[4,5-c]quinolin-2-one]: the IC50 came out at 4 nM.

As to `Cc1nn(C)cc1-n1c(=O)n(C)c2cnc3ccc(-c4cccc(OC(C)C)c4F)cc3c21` [Example 83, 1-(1,3-Dimethyl-1H-pyrazol-4-yl)-8-(2-fluoro-3-isopropoxy-phenyl)-3-methyl-1,3-dihydro-imidazo[4,5-c]quinolin-2-one], the half-maximal inhibitory concentration (IC50) is 61 nM. Regarding `COCCOc1cc(-c2ccc3ncc4c(c3c2)n(-c2cn(C)nc2C)c(=O)n4C)cnc1C` [Example 86.2, 1-(1,3-Dimethyl-1H-pyrazol-4-yl)-8-[5-(2-methoxy-ethoxy)-6-methyl-pyridin-3-yl]-3-methyl-1,3-dihydro-imidazo[4,5-c]quinolin-2-one], the 50% inhibitory concentration (IC50) worked out at 31 nM. To `CCNc1cc(-c2ccc3ncc4c(c3c2)n(-c2cn(C)nc2Cl)c(=O)n4C)cnc1OC` [Example 90.1, 1-(3-Chloro-1-methyl-1H-pyrazol-4-yl)-8-(5-ethylamino-6-methoxy-pyridin-3-yl)-3-methyl-1,3-dihydro-imidazo[4,5-c]quinolin-2-one] belongs 5 nM. To `CNc1ccc(-c2ccc3ncc4c(c3c2)n(-c2cn(C)nc2Cl)c(=O)n4C)cn1` [Example 118.5, 1-(3-Chloro-1-methyl-1H-pyrazol-4-yl)-3-methyl-8-(6-methylamino-pyridin-3-yl)-1,3-dihydro-imidazo[4,5-c]quinolin-2-one] belongs less than 3 nM; to `Cc1nn(C)cc1-n1c(=O)n(C)c2cnc3ccc(-c4cnc(N)c(F)c4)cc3c21` [Example 142.2, 8-(6-Amino-5-fluoro-pyridin-3-yl)-1-(1,3-dimethyl-1H-pyrazol-4-yl)-3-methyl-1,3-dihydro-imidazo[4,5-c]quinolin-2-one], 6 nM. In the case of `[2H]C([2H])([2H])Nc1ncc(-c2ccc3ncc4c(c3c2)n(-c2c(C)nn(C)c2C)c(=O)n4C)cc1C(F)(F)F` [Example 143, 3-Methyl-8-(6-trideuteromethylamino-5-trifluoromethyl-pyridin-3-yl)-1-(1,3,5-trimethyl-1H-pyrazol-4-yl)-1,3-dihydro-imidazo[4,5-c]quinolin-2-one], the IC50 was determined as 113 nM.

For `CCNc1ncc(-c2ccc3ncc4c(c3c2)n(-c2c(C)nn(C)c2C)c(=O)n4C)cc1C(F)(F)F` [Example 145.1, 8-(6-Ethylamino-5-trifluoromethyl-pyridin-3-yl)-3-methyl-1-(1,3,5-trimethyl-1H-pyrazol-4-yl)-1,3-dihydro-imidazo[4,5-c]quinolin-2-one], the IC50 stood at 172 nM. The result for `CNc1ncc(-c2ccc3ncc4c(c3c2)n(-c2cn(C(C)C)nc2C)c(=O)n4C)cc1Cl` [Example 146.3, 8-(5-Chloro-6-methylamino-pyridin-3-yl)-1-(1-isopropyl-3-methyl-1H-pyrazol-4-yl)-3-methyl-1,3-dihydro-imidazo[4,5-c]quinolin-2-one] reads 9 nM. The result for `CNc1ncc(-c2ccc3ncc4c(c3c2)n(-c2c(C)noc2C)c(=O)n4C)cc1Cl` [Example 146.6, 8-(5-Chloro-6-methylamino-pyridin-3-yl)-1-(3,5-dimethyl-isoxazol-4-yl)-3-methyl-1,3-dihydro-imidazo[4,5-c]quinolin-2-one] reads 479 nM; that for `CCNc1ncc(-c2ccc3ncc4c(c3c2)n(-c2cn(C)nc2C)c(=O)n4C)cc1Cl` [Example 147, 8-(5-Chloro-6-ethylamino-pyridin-3-yl)-1-(1,3-dimethyl-1H-pyrazol-4-yl)-3-methyl-1,3-dihydro-imidazo[4,5-c]quinolin-2-one], 11 nM. To `Cc1nn(C)cc1-n1c(=O)n(C)c2cnc3ccc(-c4cnc(F)c(N(C)C)c4)cc3c21` [Example 151, 8-(5-Dimethylamino-6-fluoro-pyridin-3-yl)-1-(1,3-dimethyl-1H-pyrazol-4-yl)-3-methyl-1,3-dihydro-imidazo[4,5-c]quinolin-2-one] belongs 15 nM; to `CNc1cc(-c2ccc3ncc4c(c3c2)n(-c2c(C)nn(C)c2C)c(=O)n4C)cnc1CO` [Example 158.4, 8-(6-Hydroxymethyl-5-methylamino-pyridin-3-yl)-3-methyl-1-(1,3,5-trimethyl-1H-pyrazol-4-yl)-1,3-dihydro-imidazo[4,5-c]quinolin-2-one], 70 nM. For the compound `CCOCc1cc(-c2ccc3ncc4c(c3c2)n(-c2cn(CC)nc2C)c(=O)n4C)cnc1N` [Example 166.2, 8-(6-Amino-5-ethoxymethyl-pyridin-3-yl)-1-(1-ethyl-3-methyl-1H-pyrazol-4-yl)-3-methyl-1,3-dihydro-imidazo[4,5-c]quinolin-2-one], the half-inhibitory concentration (IC50) was 55 nM. The result for `COCc1cc(-c2ccc3ncc4c(c3c2)n(-c2cn(C(C)C)nc2C)c(=O)n4C)cnc1N` [Example 168.1, 8-(6-Amino-5-methoxymethyl-pyridin-3-yl)-1-(1-isopropyl-3-methyl-1H-pyrazol-4-yl)-3-methyl-1,3-dihydro-imidazo[4,5-c]quinolin-2-one] reads 12 nM; that for `Cc1cc(-n2c(=O)n(C)c3cnc4ccc(-c5cncc(N6CCOCC6)c5)cc4c32)n(C)n1` [Example 175.2, 1-(2,5-Dimethyl-2H-pyrazol-3-yl)-3-methyl-8-(5-morpholin-4-yl-pyridin-3-yl)-1,3-dihydro-imidazo[4,5-c]quinolin-2-one], 155 nM. Regarding `Cc1nn(C)cc1-n1c(=O)n(C)c2cnc3ccc(-c4cncc(OCCF)c4)cc3c21` [Example 181, 1-(1,3-Dimethyl-1H-pyrazol-4-yl)-8-[5-(2-fluoro-ethoxy)-pyridin-3-yl]-3-methyl-1,3-dihydro-imidazo[4,5-c]quinolin-2-one], the concentration for half-maximal inhibition (IC50) amounted to 10 nM. Take `COc1ncc(-c2ccc3ncc4c(c3c2)n(-c2cn(C)nc2Cl)c(=O)n4C)cc1CO` [Example 200, 1-(3-Chloro-1-methyl-1H-pyrazol-4-yl)-8-(5-hydroxymethyl-6-methoxy-pyridin-3-yl)-3-methyl-1,3-dihydro-imidazo[4,5-c]quinolin-2-one]: the IC50 was 3 nM. On to `COCc1cc(-c2ccc3ncc4c(c3c2)n(-c2cn(C)nc2Cl)c(=O)n4C)cnc1OC` [Example 201, 1-(3-Chloro-1-methyl-1H-pyrazol-4-yl)-8-(6-methoxy-5-methoxymethyl-pyridin-3-yl)-3-methyl-1,3-dihydro-imidazo[4,5-c]quinolin-2-one], for which the IC50 was 27 nM. For `Cc1nn(C(C)C)cc1-n1c(=O)n(C)c2cnc3ccc(-c4cncc(C(O)(CF)CF)c4)cc3c21` [Example 219, 8-[5-(2-Fluoro-1-fluoromethyl-1-hydroxy-ethyl)-pyridin-3-yl]-1-(1-isopropyl-3-methyl-1H-pyrazol-4-yl)-3-methyl-1,3-dihydro-imidazo[4,5-c]quinolin-2-one], the IC50 came out at 139 nM. To `CCn1cc(-n2c(=O)n(C)c3cnc4ccc(-c5cncc(C6(C#N)CCC6)c5)cc4c32)c(C)n1` [Example 221.2, 1-{5-[1-(1-Ethyl-3-methyl-1H-pyrazol-4-yl)-3-methyl-2-oxo-2,3-dihydro-1H-imidazo[4,5-c]quinolin-8-yl]-pyridin-3-yl}-cyclobutanecarbonitrile] belongs 56 nM; to `CC(=O)Nc1cc(-c2ccc3ncc4c(c3c2)n(-c2cn(C)nc2C)c(=O)n4C)cnc1Cl` [Example 222, N-{2-Chloro-5-[1-(1,3-dimethyl-1H-pyrazol-4-yl)-3-methyl-2-oxo-2,3-dihydro-1H-imidazo[4,5-c]quinolin-8-yl]-pyridin-3-yl}-acetamide], 22 nM; to `Cc1nn(C)cc1-n1c(=O)n(C)c2cnc3ccc(-c4cnc(Cl)c(NS(C)(=O)=O)c4)cc3c21` [Example 223, N-{2-Chloro-5-[1-(1,3-dimethyl-1H-pyrazol-4-yl)-3-methyl-2-oxo-2,3-dihydro-1H-imidazo[4,5-c]quinolin-8-yl]-pyridin-3-yl}-methanesulfonamide], less than 3 nM.
